In patent publication US6608027B1, “Macrocyclic peptides active against the hepatitis C virus” (Boehringer Ingelheim (Canada) Ltd, priority 1999, dated 2003):
pEC50, pIC50: −log10 of the molar value.

Each compound was assayed against T1, His-NS3-NS4AFL (full-length NS3-NS4A protein complex) (Hepatitis C virus genotype 1b, UniProt P26663) (assay: Full-length NS3-NS4A heterodimer protein fluorogenic assay). Conditions: not given.
T1 construct: made in house; host or cells: Sf21 insect cells, recombinant baculovirus (Bac-to-Bac, pFastBac HTa)
T1 sequence (P26663 1658-1711): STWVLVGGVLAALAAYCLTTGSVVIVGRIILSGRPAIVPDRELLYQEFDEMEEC
T1 sequence (P26663 1027-1657): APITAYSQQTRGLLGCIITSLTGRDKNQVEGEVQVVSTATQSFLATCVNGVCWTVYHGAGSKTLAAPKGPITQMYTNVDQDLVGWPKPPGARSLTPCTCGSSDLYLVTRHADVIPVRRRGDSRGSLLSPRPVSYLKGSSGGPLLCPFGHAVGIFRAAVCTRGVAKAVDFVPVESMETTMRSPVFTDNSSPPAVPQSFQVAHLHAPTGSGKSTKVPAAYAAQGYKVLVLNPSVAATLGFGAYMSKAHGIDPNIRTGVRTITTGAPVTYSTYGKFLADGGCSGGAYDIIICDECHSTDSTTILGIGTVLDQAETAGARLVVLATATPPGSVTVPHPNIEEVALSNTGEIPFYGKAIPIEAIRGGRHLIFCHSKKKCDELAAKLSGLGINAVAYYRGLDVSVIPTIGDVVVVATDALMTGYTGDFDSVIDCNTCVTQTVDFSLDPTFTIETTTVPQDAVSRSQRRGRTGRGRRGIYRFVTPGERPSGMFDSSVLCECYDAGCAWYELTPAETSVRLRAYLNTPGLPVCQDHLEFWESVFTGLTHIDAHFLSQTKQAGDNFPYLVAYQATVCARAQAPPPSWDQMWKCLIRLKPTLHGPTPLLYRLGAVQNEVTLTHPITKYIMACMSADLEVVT
Format: biochemical, HCV genotype 1b
Text: The NS2-NS5B-3′non coding region was cloned by RT-PCR into the pCR®3 vector (Invitrogen) using RNA extracted from the serum of an HCV genotype 1b infected individual (provided by Dr. Bernard Willems, Hôpital St-Luc, Montréal, Québec, Canada). The NS3-NS4A region (NS3-NS4AFL) was then subcloned by PCR into the pFastBac™ HTa baculovirus expression vector (Gibco/BRL). The vector sequence includes a region encoding a 28-residue N-terminal sequence which contains a hexahistidine tag. The Bac-to-Bac™ baculovirus expression system (Gibco/BRL) was used to produce the recombinant baculovirus. His-NS3-NS4AFL was expressed by infecting 10^6 Sf21 cells/mL with the recombinant baculovirus at a multiplicity of infection of 0.1-0.2 at 27°. Authentic auto-proteolysis occurs during expression to produce a non covalent and stable NS3-NS4A protein complex (referred to as full-length “FL”). The infected culture was harvested 48 to 64 h later by centrifugation at 4°. The cell pellet was homogenized in 50 mM NaPO4, pH 7.5, 40% glycerol (w/v), 2 mM β-mercaptoethanol, in presence of a cocktail of protease inhibitors. His-NS3-NS4AFL was then extracted from the cell lysate with 1.5% NP-40, 0.5% Triton X-100, 0.5M NaCl, and a DNase treatment. After ultracentrifugation, the soluble extract was diluted 4-fold and bound on a Pharmacia Hi-Trap Ni-chelating column. The His-NS3-NS4AFL was eluted in a >90% pure form (as judged by SDS-PAGE), using a 50 to 400 mM imidazole gradient. The His-NS3-NS4AFL was stored at −80° in 50 mM sodium phosphate, pH 7.5, 10% (w/v) glycerol, 0.5 M NaCl, 0.25 M imidazole, 0.1% NP-40. It was thawed on ice and diluted just prior to use.
The protease activity of His-NS3-NS4AFL was assayed in 50 mM Tris-HCl, pH 8.0, 0.25 M sodium citrate, 0.01% (w/v) n-dodecyl-β-D-maltoside, 1 mM TCEP. Five (5) μM of the internally quenched substrate anthranilyl-DDIVPAbu[C(O)—O]-AMY(3-NO2)TW-OH (SEQ. ID NO.: 1) in presence of various concentrations of inhibitor were incubated with 1.5 nM of His-NS3-NS4AFL for 45 min at 23°. […] The reaction was terminated with the addition of 1M MES, pH 5.8. Fluorescence of the N-terminal product was monitored on a Perkin-Elmer LS-50B fluorometer equipped with a 96-well plate reader (excitation wavelength: 325 nm, emission wavelength: 423 nm).
The % inhibition was calculated with the following equation:
100−[(fluoinh−fluoblank)/(fluoctl−fluoblank)×100]
A non-linear curve fit with the Hill model was applied to the inhibition-concentration data, and the 50% effective concentration (IC50) was calculated by the use of SAS software (Statistical Software System; SAS Institute, Inc. Cary, N.C.).
`COc1ccc2c(O[C@@H]3C[C@H]4C(=O)N[C@]5(C(=O)O)C[C@H]5CCCCCCC[C@H](NC(C)=O)C(=O)N4C3)cc(-c3ccccc3)nc2c1` [Compound 219] was tested, and the pIC50 was > 7.00. `CC(C)(C)OC(=O)N[C@H]1CCCC(O)C(O)CC[C@@H]2C[C@@]2(C(=O)O)NC(=O)[C@@H]2CC(Oc3ccnc4ccccc34)CN2C1=O` (stereo partly drawn) [Compound 205] was tested, and the pIC50 was 6.00 to 7.00. For `CC(=O)N[C@H]1CCC/C=C/CC[C@@H]2C[C@@]2(C(=O)O)NC(=O)[C@@H]2CC(Oc3ccnc4ccccc34)CN2C1=O` (stereo partly drawn) [Compound 203], the pIC50 was < 6.00. In the case of `COc1ccc2c(O[C@@H]3C[C@H]4C(=O)N[C@]5(C(=O)O)CC5/C=C\CCCCC[C@H](NC(=O)NC(C)(C)C)C(=O)N4C3)cc(-c3ccccc3)nc2c1` (stereo partly drawn) [Compound 209], the pIC50 was > 7.00. For `COc1ccc2c(O[C@@H]3C[C@H]4C(=O)N[C@]5(C(=O)O)C[C@H]5/C=C\CCCCC[C@H](NC(=O)OC(C)(C)C)C(=O)N4C3)cc(-c3ccccc3)nc2c1` [Compound 208], the pIC50 was > 7.00. With `COc1ccc2c(O[C@@H]3C[C@H]4C(=O)N[C@]5(C(=O)O)C[C@H]5CCCCCCC[C@H](NC(=O)OC(C)(C)C)C(=O)N4C3)cc(-c3ccccc3)nc2c1` [Compound 215] the pIC50 was > 7.00. Work on `COc1ccc2c(O[C@@H]3C[C@H]4C(=O)N[C@]5(C(=O)O)C[C@H]5/C=C\CCCCCC(O)C(=O)N4C3)ccnc2c1` (single isomer, unassigned) [Compound 213] yielded a pIC50 of 6.00 to 7.00. `COc1ccc2c(O[C@@H]3C[C@H]4C(=O)N[C@]5(C(=O)O)C[C@@H]5/C=C\CCCCC[C@H](NC(=O)OC(C)(C)C)C(=O)N4C3)cc(-c3nccs3)nc2c1` [Compound 220] was tested, and the pIC50 was > 7.00. With `COc1ccc2c(O[C@@H]3C[C@H]4C(=O)N[C@]5(C(=O)O)C[C@H]5/C=C\CCCCC[C@H](NC(=O)OC(C)(C)C)C(=O)N4C3)ccnc2c1` [Compound 207] the pIC50 was > 7.00. In the case of `CC(C)(C)OC(=O)N[C@H]1CCCCC/C=C\[C@@H]2C[C@@]2(C(=O)O)NC(=O)[C@@H]2C[C@@H](Oc3ccnc4ccccc34)CN2C1=O` [Compound 206], the pIC50 was > 7.00. In the case of `COc1ccc2c(O[C@@H]3C[C@H]4C(=O)N[C@]5(C(=O)O)C[C@H]5/C=C\CCC(O)CC[C@H](NC(=O)OC(C)(C)C)C(=O)N4C3)cc(-c3ccccc3)nc2c1` (mixture of isomers) [Compound 217], the pIC50 was > 7.00.

Same assay, conditions: fluorogenic assay of Example 48; no asterisk; read-out: enzyme activity (IC50 grade)
In the case of `COc1ccc2c(OC3CC4C(=O)NC5(C(=O)O)CC5CCC=CCOCC(NC(=O)OC(C)(C)C)C(=O)N4C3)cc(-c3ccccc3)nc2c1` (stereo not drawn) [Compound 403], the pIC50 was > 7.00. For `CC(=O)Nc1nc(-c2cc(O[C@@H]3C[C@H]4C(=O)N[C@]5(C(=O)O)C[C@H]5/C=C\CCCCC[C@H](NC(=O)OC(C)(C)C)C(=O)N4C3)c3ccc(N(C)C)cc3n2)cs1` [Compound 601], the pIC50 was > 7.00. `COc1ccc2c(O[C@@H]3C[C@H]4C(=O)N[C@]5(C(=O)O)C[C@@H]5/C=C/COCCC[C@H](NC(=O)OC(C)(C)C)C(=O)N4C3)cc(-c3ccccc3)nc2c1` [Compound 303] showed a pIC50 of 6.00 to 7.00. In the case of `COc1ccc2c(O[C@@H]3C[C@H]4C(=O)N[C@]5(C(=O)O)C[C@@H]5/C=C/CCC[C@H](NC(=O)OC(C)(C)C)C(=O)N4C3)cc(-c3ccccc3)nc2c1` [Compound 302], the pIC50 was < 6.00. `COc1ccc2c(O[C@@H]3C[C@H]4C(=O)N[C@]5(C(=O)O)C[C@H]5CC/C=C/CS[C@@H](C)[C@H](NC(=O)OC(C)(C)C)C(=O)N4C3)cc(-c3ccccc3)nc2c1` [Compound 410] was tested, and the pIC50 was > 7.00. For `COc1ccc2c(O[C@@H]3C[C@H]4C(=O)N[C@]5(C(=O)O)C[C@H]5CC/C=C/CCC[C@H](NC(=O)OC(C)(C)C)C(=O)N4C3)cc(-c3ccccc3)nc2c1` [Compound 401], the pIC50 was > 7.00. `COc1ccc2c(O[C@@H]3C[C@H]4C(=O)N[C@]5(C(=O)O)C[C@H]5/C=C\CCCCC[C@H](NC(=O)OC(C)(C)C)C(=O)N4C3)cc(-c3cnco3)nc2c1` [Compound 603] was tested, and the pIC50 was > 7.00. For `CCOc1cc(O[C@@H]2C[C@H]3C(=O)N[C@]4(C(=O)O)C[C@H]4/C=C\CCCCC[C@H](NC(C)=O)C(=O)N3C2)c2ccc(OC)cc2n1` [Compound 308], the pIC50 was > 7.00. For `COc1ccc2c(OC3CC4C(=O)NC5(C(=O)O)CC5CCC=CCSC(C)(C)C(NC(=O)OC(C)(C)C)C(=O)N4C3)cc(-c3ccccc3)nc2c1` (stereo not drawn) [Compound 412], the pIC50 was < 6.00. In the case of `CC(C)(C)OC(=O)N[C@H]1CCCCC/C=C\[C@@H]2C[C@@]2(C(=O)O)NC(=O)[C@@H]2C[C@@H](Oc3cc(C(F)(F)F)nc4cc(O)ccc34)CN2C1=O` [Compound 602], the pIC50 was > 7.00. `CC(C)(C)OC(=O)N[C@H]1CCCCCC=CCCC2CC2(C(=O)O)NC(=O)[C@@H]2C[C@@H](Oc3ccnc4ccccc34)CN2C1=O` (single isomer, unassigned) [Compound 301] gave a pIC50 of 6.00 to 7.00. With `COc1ccc2c(O[C@@H]3C[C@H]4C(=O)N[C@]5(C(=O)O)C[C@H]5/C=C\CCCCCC[C@H](NC(=O)OC(C)(C)C)C(=O)N4C3)cc(-c3csc(NC(C)=O)n3)nc2c1` [Compound 307] the pIC50 was > 7.00. For `COc1ccc2c(O[C@@H]3C[C@H]4C(=O)N[C@]5(C(=O)O)C[C@H]5C=CCCCC=CC[C@H](NC(=O)OC(C)(C)C)C(=O)N4C3)cc(-c3ccccc3)nc2c1` [Compound 304], the pIC50 was > 7.00. For `COc1ccc2c(O[C@@H]3C[C@H]4C(=O)N[C@]5(C(=O)O)CC5CCCCN(C(C)=O)CC[C@H](NC(=O)OC(C)(C)C)C(=O)N4C3)cc(-c3ccccc3)nc2c1` (stereo partly drawn) [Compound 508], the pIC50 was > 7.00. With `COc1ccc2c(O[C@@H]3C[C@H]4C(=O)N[C@]5(C(=O)O)CC5CCCCCO[C@H](C)[C@H](NC(=O)OC(C)(C)C)C(=O)N4C3)cc(-c3ccccc3)nc2c1` (stereo partly drawn) [Compound 407] the pIC50 was 6.00 to 7.00. `COc1ccc2c(OC3CC4C(=O)NC5(C(=O)O)CC5CCC=CCCCC(NC(=O)OC(C)(C)C)C(=O)N4C3)cc(-c3ccccc3)nc2c1` (stereo not drawn) [Compound 402] gave a pIC50 of 6.00 to 7.00.

What follows are compounds tested against T2, NS3 protease (Hepatitis C virus genotype 1b, UniProt P26663) (assay: NS3 protease cell-based assay (SEAP reporter, Huh-7 cells)). Conditions: SEAP activity, 24-hour incubation, read-out: cell. act. (EC50 code).
T2 construct: expressed in transfected cells; host or cells: Huh-7 human hepatoma cells, transient co-transfection (CMV promoter)
T2 sequence (P26663 1658-1711): as the sequence (P26663 1658-1711) above
T2 sequence (P26663 1027-1657): as the sequence (P26663 1027-1657) above
Set-up: species or system HCV
Text: This assay is done with Huh-7 cells, a human cell line derived from a hepatoma, co-transfected with 2 DNA constructs: one (called NS3) expressing part of the HCV non-structural polyprotein fused to the tTA protein through an NS5A-NS5B cleavage site in the following order: NS3-NS4A-NS4B-NS5A-(NS5B)tTA where (NS5B) represents the 6 first amino acids of NS5
B. This polyprotein is expressed under the control of the CMV promoter, the other (called SEAP) expressing the reporter protein, secreted alkaline phosphatase (SEAP), under the regulation of a tTA-responsive promoter. The first construct leads to the expression of a polyprotein from which the different mature proteins are released through cleavage by the NS3 protease. It is believed that the mature viral proteins forms a complex at the membrane of the endoplasmic reticulum. tTA is a fusion protein, described by Gossen and Bujard (Proc. Natl. Acad. Sci. USA 89 (1992): 5547-5551), which contains a DNA-binding domain and a transcriptional activator. Release of the tTA protein requires an NS3-dependent cleavage at the NS5A-NS5B cleavage site between NS5A and itself. This last cleavage allows tTA to migrate to the nucleus and transactivate the SEAP gene. Therefore, reduction of NS3 proteolytic activity leads to confinement of tTA to the cytoplasm and concomitant decrease in SEAP activity.
To control for cellular activities other than inhibition of NS3 protease which are due to the compound, a parallel co-transfection is done with a construct expressing tTA alone and the same reporter construct such that SEAP activity is independent of the NS3 protease.
Protocol of the assay: Huh-7 cells, grown in CHO-SFMII (Life Technologies)+10% FCS (fetal calf serum) were co-transfected with the two DNA constructs in the following proportions: 7 μg NS3+500 ng SEAP+[…] FuGENE (Boehringer Mannheim) per 4×10^6 Huh-7 cells. After 5 hours at 37° C., the cells were washed, trypsinized and plated (at 80 000 cells/well) in 96-well plates containing a range of concentrations of the compounds to be tested. After a 24-hour incubation period, the SEAP activity in the medium was measured with the Phospha-Light kit (Tropix).
Analysis of the percent inhibition of SEAP activity with respect to compound concentration was performed with the SAS software to obtain the EC50.
With `COc1ccc2c(O[C@@H]3C[C@H]4C(=O)N[C@]5(C(=O)O)C[C@H]5/C=C\CCCCC[C@H](NC(=O)OC(C)(C)C)C(=O)N4C3)cc(-c3csc(N)n3)nc2c1` [Compound 731] the pEC50 was ≥ 6.00. In the case of `COc1ccc2c(O[C@@H]3C[C@H]4C(=O)N[C@]5(C(=O)O)CC5CCCCCCC[C@H](NC(=O)OC5CCCC5)C(=O)N4C3)cc(-c3nc(C(C)C)cs3)nc2c1` (stereo partly drawn) [Compound 906], the pEC50 was ≥ 6.00. In the case of `COc1ccc2c(O[C@@H]3C[C@H]4C(=O)N[C@]5(C(=O)O)CC5/C=C\CCCCC[C@H](NC(=O)OC5CCCC5)C(=O)N4C3)cc(-c3csc(NC(C)C)n3)nc2c1` (stereo partly drawn) [Compound 822], the pEC50 was ≥ 6.00.
